Laboratory results as given in patent US20080312207A1, “Compounds” (priority 2004, published 2008).

How the values were obtained:
[1] = target: T1, recombinant human pancreatic GLK (Homo sapiens, UniProt P35557); assay: Enzymatic activity of GLK (G-6-P dehydrogenase coupled, NADP/NADPH, OD 340 nm); type: biochemical; conditions: read-out: activating activity for glucokinase, EC50
T1 construct: 6-His (N); made in house; host or cells: E. coli BL21
T1 sequence (P35557 1-465): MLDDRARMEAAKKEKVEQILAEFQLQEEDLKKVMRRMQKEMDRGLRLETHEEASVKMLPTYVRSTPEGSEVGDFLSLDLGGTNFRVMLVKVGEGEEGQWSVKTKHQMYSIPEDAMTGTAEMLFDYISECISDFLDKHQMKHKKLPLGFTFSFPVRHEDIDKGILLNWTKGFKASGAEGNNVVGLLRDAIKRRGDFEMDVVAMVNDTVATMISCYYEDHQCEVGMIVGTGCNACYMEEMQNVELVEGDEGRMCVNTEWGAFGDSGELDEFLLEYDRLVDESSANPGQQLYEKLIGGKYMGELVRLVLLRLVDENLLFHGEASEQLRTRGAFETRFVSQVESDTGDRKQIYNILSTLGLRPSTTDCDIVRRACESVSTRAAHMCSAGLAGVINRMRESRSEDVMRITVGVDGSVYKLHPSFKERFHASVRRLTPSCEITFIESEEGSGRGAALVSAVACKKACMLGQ

Oral exposure = type: in vivo; conditions: compared with Example II107 in WO 03/015774
Zucker obese fa/fa rats = assay: Oral Glucose Tolerance Test (OGTT); type: in vivo, rat; conditions: 10 mg/kg, given orally 120 minutes before glucose 2 g/kg; percent inhibition of blood glucose AUC vs vehicle
Experimental: The animals were fasted for 2 hours before use for experiments. A test compound or a vehicle was given orally 120 minutes before oral administration of a glucose solution at a dose of 2 g/kg body weight. Blood glucose levels were measured using a Accucheck glucometer from tail bled samples taken at different time points before and after administration of glucose (time course of 60 minutes). […] Percent inhibition is determined using the AUC in the vehicle-control group as zero percent inhibition.

EC50 [1]	oral exposure (Oral exposure)	Compound	OGTT activity (Zucker obese fa/fa rats)
50 nM	superior	CC(C)Oc1cc(Oc2ccc(S(C)(=O)=O)cc2)cc(C(=O)Nc2nccs2)c1 [Example 7c, 3-(1-methylethyl)oxy-5-[4-(methylsulfonyl)phenoxy]-N-1,3-thiazol-2-ylbenzamide]	18%
		Cc1cnc(NC(=O)c2cc(OCCc3ccsc3)cc(OC(C)C)c2)s1 [Example II107 in WO 03/015774, reference compound]	not active
